≈ marks a conversion by molar mass, not a printed value.
Legend:
mAb 13C8 [1] = test: quantum dot-based LFIA (QD-LFIA) with mAb 13C8; format: binding, BALB/c mice; settings: for IC50 (QD-LFIA): optimized QD-LFIA, mAb 13C8-QD, T line antigen 30 μg/mL, given as MDA-BSA and MDA-OVA
Description: One milliliter of QDs was added to 9 mL of MES (0.054 M at pH 6.0) and centrifuged at 10,956× g for 20 min. Then, the precipitate was resuspended in 10 mL of MES (0.05 M at pH 6.0). After dispersion by ultrasonication for 2 min, EDC (20 mg) and NHS (20 mg) were added, and the reaction mixture was incubated for 30 min, followed by centrifugation at 10,956× g for 20 min. The precipitate was resuspended in 10 mL of MES (0.05 M at pH 6.0). Then, 1 mg of the mAb dissolved in 10 mL MES (0.027 M at pH 8.0) was added to the QD mixture and shaken at 25 °C and 180 rpm for 90 min. After the reaction, 5 mL of MES (0.054 M at pH 6.0 containing 1.6% BSA, w/v) was added, and the mixture was shaken at 25 °C and 180 rpm for 40 min, followed by centrifugation at 10,956× g for 20 min. The precipitate was resuspended in 10 mL of PB (0.01 M at pH 6.0, containing 5% casein, 1% glucose, 1.5% alanine and 0.05% NaN3, w/v) and dispersed by ultrasonication for 2 min.
The conjugate pad (6 mm × 300 mm) was pretreated with PBS (containing 0.5% Triton X-100, 0.5% alanine and 0.05% NaN3, w/v). Then, 1 mL of the mAb–QD conjugate was sprayed onto the pretreated conjugate pad at a flow rate of 10 μL/cm, and the pad was dried at 37 °C for 2 h. Other applied protocols were similar to those mentioned above.
(§1) Taking the logarithm of the carbofuran concentration as the abscissa and (B/B0)% as the ordinate, the standard curves for ELISA and QD-LFIA were obtained based on the Morgan–Mercer–Flodin (MMF) model, which were fitted by CurveExpert 1.4.0 software (https://www.curveexpert.net, accessed on 15 July 2022). For the ELISA method, B and B0 are the absorbance of the sample well and blank well, respectively. For the QD-LFIA method, B and B0 are the T/C (fluorescence intensity of the test line/fluorescence intensity of the control line) of the sample and blank control, respectively.
(§2) The inhibition ratio (I%) was calculated as (B0-B)/B0 × 100%. IC50 is the concentration of the carbofuran at an I% of 50%, and the limit of detection (LOD) was determined as the concentration showing 10% of inhibition.
(§3) The cross-reactivities (CRs) of benfuracarb, carbosulfan, 3-hydroxy-carbofuran, metolcarb, carbaryl, isoprocarb and aldicarb with carbofuran were assessed by ELISA and QD-LFIA. CR was calculated as CR (%) = [IC50 (carbofuran)/IC50 (analogues)] × 100%.
Then, to prepare QD-LFIA test strips, DDB-BSA (40 μg/mL), DDB-OVA (50 μg/mL), MDA-BSA (35 μg/mL) and MDA-OVA (30 μg/mL) were dispensed onto the NC membrane, and antibody 13C8 was conjugated to the QDs. Carbofuran standards (0, 0.05, 0.15, 0.45, 1.35 and 4.05 ng/mL) were detected to obtain a standard curve, and the IC50 was calculated. […] In LFIA, carbofuran in solution competed with the coating antigen on the NC membrane for antibody 13C8 conjugated to the QDs.
A standard curve was developed with the inhibition ratio (B/B0) versus the logarithm of the concentration of carbofuran.

[2] = test system: mAb with the immunogen 3-succinyl-carbofuran-KLH; settings: cited from earlier work
mAb 13C8 [3] = test: indirect competitive ELISA (icELISA) with mAb 13C8; format: binding, BALB/c mice; settings: for IC50 (ELISA): optimized ELISA, mAb 13C8 0.03 μg/mL, coating antigen 0.1 μg/mL, given as MDA-BSA and MDA-OVA, unit from text
Description: (§4) Microplates were coated with coating antigens. Different concentrations of the standard (50 µL) and the mAb (50 µL) were added to each well, and the plates were incubated for 20 min at 37 °C. The plates were washed with PBS (0.01 M, containing 0.05% (v/v) Triton X-100), 100 μL of goat anti-mouse IgG-HRP conjugate solution was added to each well, and the plates were incubated for 20 min at 37 °C. After the plates were washed with PBS (0.01 M, containing 0.05% Triton X-100, v/v), 100 µL of TMB single-component substrate solution was added to each well, followed by incubation at 37 °C for 10 min. Finally, the reaction was terminated, and the absorbance at 450 nm was measured by a microplate reader.
as §1, §2, §3
The microplate was coated with the coating antigens DDB-BSA (1 µg/mL), DDB-OVA (0.5 µg/mL), MDA-BSA (0.2 µg/mL) and MDA-OVA (0.1 µg/mL), and the concentration of mAb 13C8 was 0.03 µg/mL. Carbofuran standards (0, 0.05, 0.15, 0.45, 1.35 and 4.05 ng/mL) were detected to obtain a standard curve, and the IC50 was calculated. […] In the icELISA used in this study, free antigen (carbofuran) in solution competed with the coating antigen on the microplate for antibody 13C8; therefore, the IC50 value was negatively correlated with the antibody-binding ability of free antigen competing with coating antigens.
The ELISA method was developed with the antibody 13C8–antigen MDA-BSA pair. Under the optimized coating antigen concentration (0.1 μg/mL), HRP-conjugated goat anti-mouse IgG concentration (1 μg/mL), antibody concentration (0.03 μg/mL) and working buffer parameters (5 mM PBS at pH 7.4), a standard curve was obtained with the concentration of carbofuran on the abscissa and the inhibition ratio (B/B0) on the ordinate.

mAb 6D6 = test: ELISA reactivity of hybridoma supernatant, cell line 6D6; format: binding, BALB/c mice; settings: cell line 6D6 supernatant, 50 ng/mL pesticide
Description: (§5) The desired antibodies with the highest affinity were screened by icELISA with carbofuran as a competitive compound, and hybridoma cells were cloned by the limited dilution method. Then, the selected hybridoma cells were injected into mice for ascites production. Finally, the mAbs were purified by (NH4)2SO4 with saturation of 50% and further purified by an SPA column.
as §4, §2
(§6) Then, the reactivity of the supernatant of the six cell lines to 50 ng/mL carbofuran, benfuracarb and carbosulfan was assessed by ELISA, and the results are shown in Table 1. […] Because 13C8 had the highest reactivity with carbofuran, benfuracarb and carbosulfan among the six cell lines, it was injected into mice for ascites production, and the mAbs were purified by a protein A column for further experiments.

mAb 12D6 = test: ELISA reactivity of hybridoma supernatant, cell line 12D6; format: binding, BALB/c mice; settings: cell line 12D6 supernatant, 50 ng/mL pesticide
Description: as §5, §4, §2, §6

mAb 13C8 [4] = test: ELISA reactivity of hybridoma supernatant, cell line 13C8; format: binding, BALB/c mice; settings: cell line 13C8 supernatant, 50 ng/mL pesticide
Description: as §5, §4, §2, §6

mAb 18G3 = test: ELISA reactivity of hybridoma supernatant, cell line 18G3; format: binding, BALB/c mice; settings: cell line 18G3 supernatant, 50 ng/mL pesticide
Description: as §5, §4, §2, §6

mAb 7F9 = test: ELISA reactivity of hybridoma supernatant, cell line 7F9; format: binding, BALB/c mice; settings: cell line 7F9 supernatant, 50 ng/mL pesticide
Description: as §5, §4, §2, §6

mAb 12H5 = test: ELISA reactivity of hybridoma supernatant, cell line 12H5; format: binding, BALB/c mice; settings: cell line 12H5 supernatant, 50 ng/mL pesticide
Description: as §5, §4, §2, §6

[5] = test system: broad-specificity mAb with the immunogen BFNB-BSA; settings: cited from earlier work

Structure (SMILES) | IC50 (QD-LFIA) (mAb 13C8 [1]) | IC50 (ELISA) (mAb 13C8 [3]) | CR(%) (ic-ELISA) [5] | IC50 (ic-ELISA) [5] | other results
CNC(=O)Oc1cccc2c1OC(C)(C)C2O (centres unmarked) [3-hydroxy-carbofuran] | 0.00087 ± 6e-05 µg/mL (≈ 0.00367 µM) | 0.00025 ± 5e-05 µg/mL (≈ 0.00105 µM) |  |  | CR(%) (ic-ELISA) [2]: 110.1%; IC50 (ic-ELISA) [2]: 0.00069 ± 8e-05 µg/mL (≈ 0.00291 µM)
CNC(=O)O/N=C/C(C)(C)SC [aldicarb] | >0.1 µg/mL | >0.02 µg/mL |  |  | 
CCOC(=O)CCN(SN(C)C(=O)Oc1cccc2c1OC(C)(C)C2)C(C)C [benfuracarb] | 0.00081 ± 7e-05 µg/mL (≈ 0.00197 µM) | 0.00023 ± 3e-05 µg/mL (≈ 0.00056 µM) |  |  | Reactivity of mAb (I%) (mAb 6D6): 53%; Reactivity of mAb (I%) (mAb 12D6): 55%; Reactivity of mAb (I%) (mAb 13C8 [4]): 91%; Reactivity of mAb (I%) (mAb 18G3): 76%; Reactivity of mAb (I%) (mAb 7F9): 68%; Reactivity of mAb (I%) (mAb 12H5): 70%
CNC(=O)Oc1cccc2ccccc12 [carbaryl] | >0.1 µg/mL | >0.02 µg/mL | 8.5% | 0.10559 µg/mL (≈ 0.525 µM) | 
CCCCN(CCCC)SN(C)C(=O)Oc1cccc2c1OC(C)(C)C2 [carbosulfan] | 0.00084 ± 9e-05 µg/mL (≈ 0.00221 µM) | 0.00024 ± 4e-05 µg/mL (≈ 0.000631 µM) | 7.7% | 0.1158 µg/mL (≈ 0.304 µM) | Reactivity of mAb (I%) (mAb 6D6): 61%; Reactivity of mAb (I%) (mAb 12D6): 46%; Reactivity of mAb (I%) (mAb 13C8 [4]): 90%; Reactivity of mAb (I%) (mAb 18G3): 71%; Reactivity of mAb (I%) (mAb 7F9): 65%; Reactivity of mAb (I%) (mAb 12H5): 67%
CNC(=O)Oc1ccccc1C(C)C [isoprocarb] | >0.1 µg/mL | >0.02 µg/mL | 50.7% | 0.01768 µg/mL (≈ 0.0915 µM) | CR (%) (QD-LFIA) (mAb 13C8 [1]; CR = IC50(carbofuran)/IC50(analogue) x 100%, QD-LFIA with mAb 13C8): <1%; CR (%) (ELISA) (mAb 13C8 [3]; CR = IC50(carbofuran)/IC50(analogue) x 100%, optimized ELISA with mAb 13C8): <1%
CNC(=O)Oc1cccc(C)c1 [metolcarb] | >0.1 µg/mL | >0.02 µg/mL |  |  | 
CNC(=O)Oc1ccccc1OC(C)C [propoxur] |  |  | 25.8% | 0.03475 µg/mL (≈ 0.166 µM) | 
